Data: paper PMC3174134, “Lucanthone and Its Derivative Hycanthone Inhibit Apurinic Endonuclease-1 (APE1) by Direct Protein Binding” (PLoS ONE, 2011)
Where two headings read alike, the source gives them in different places.

Key:
APE1 [1] = biological target: T1, APE1 (Homo sapiens, UniProt P27695); experiment: APE1 endonuclease activity: incision of depurinated plasmid (pUC18) DNA; format: biochemical; design: the full length APE1 protein was successfully expressed and purified; made in house; host or cells: E. coli BL21/DE3
Experimental: APE1 endonuclease activity was determined using an assay that measures the conversion of plasmid DNA from supercoiled to relaxed form by incision at an abasic site [35]–[36]. Briefly, the substrate used was 200 ng of depurinated pUC18 DNA in 10 µl of 1× APE1 buffer containing 50 mM Hepes, pH 7.4, 150 mM KCl, 5 mM MgCl2 and 100 µg/ml of BSA in presence of different concentrations of the cell extract (1 µl containing 0–55 ng of total protein). Similar reactions mixtures were set up with untreated pUC18, which served as the internal control. This reaction mixture was incubated at 37°C for 15 min, and the reaction was stopped by addition of alkaline stop mix (0.25% bromocresol green in 0.25N NaOH, 50% glycerol) and left at room temperature for 10–15 min. Then the products were resolved on a 0.8% agarose gel in 40 mM Tris-acetate and 2 mM EDTA for 2 h. The gel was stained with ethidium bromide to visualize supercoiled and relaxed plasmid DNA and imaged with a digital imaging system and the area under the supercoiled and relaxed form was determined. Final calculations were done in femtomoles (fmol) of abasic sites incised/min/mg protein with normalization done using Pyruvate Kinase units (PKU) present in these extracts. Poisson distribution calculations were done on supercoiled and relaxed bands to estimate incisions per plasmid molecule and the resulting depurinated pUC18 had 1 AP site per molecule. The endonuclease activity inhibition by lucanthone was analyzed using standard Lineweaver-Burke Plot to determine if the inhibition was competitive or non-competitive.

APE1 [2] = biological target: T1, APE1; experiment: MALDI-TOF analysis of APE1 degradation; design: the full length APE1 protein was successfully expressed and purified; made in house; host or cells: E. coli BL21/DE3; conditions: 100 µM drug; for APE1 protein fragments by MALDI-TOF / Full length 35.5 kDa APE1 peak by MALDI-TOF: 37°C; for APE1 protein fragments by MALDI-TOF: 2 or 24 h; for Full length 35.5 kDa APE1 peak by MALDI-TOF: 24 h
Experimental: 100 nM of APE1 protein was treated with 100 µM of lucanthone, hycanthone or CRT at 37°C for 2 h and 24 h and analyzed on sinipinic acid matrix on a Voyager-DE STR (Applied Biosystems) MALDI-TOF instrument at the Proteomics facility at SUNYSB in a linear mode.

APE1 [3] = biological target: T1, APE1; experiment: EMSA (gel mobility shift) of APE1 DNA binding capacity with THF-containing substrate; format: biochemical; design: the full length APE1 protein was successfully expressed and purified; made in house; host or cells: E. coli BL21/DE3; conditions: 100 µM drug preincubated with APE1 30 min
Experimental: In order to elucidate whether lucanthone and hycanthone could inhibit APE1 by interfering with APE1-DNA interaction through their DNA intercalation ability, we measured the DNA binding capacity of APE1 in the presence of lucanthone and hycanthone by incubating different concentrations of APE1 (10 nM and 25 nM) with 100 µM of lucanthone and/or hycanthone for 30 min and subsequently incubating the mixture with 25 nM of THF-containing substrate at 25°C in binding buffer (50 mM HEPES, pH 7.5, 150 mM NaCl, 0.1 mg/ml BSA, 0.5 mM EDTA and 1 mM DTT) for 30 min. THF stands for tetrahydrofuran that represents a synthetic abasic site. This is commonly inserted into an oligonucleotide substrate for measuring APE1 cleavage activity. 5′-incision of THF by APE1 results in a residue that mimics reduced 5′-deoxyribose phosphate group. Since THF group lacks the 1′-OH group, it blocks β-elimination that is required for mediating any dRP lyase activity. The sequence of the APE1 substrate with THF group is 5′[…]-3′ as described by Liu et al.
APE1-DNA complex was then separated from unbound substrate DNA by electrophoresis under native conditions in a 1% agarose-0.1% acrylamide gel at 4°C for 1.5 h as described previously [50]–[51].

[4] = biological target: T2, recombinant full length APE1 (Homo sapiens, UniProt P27695); experiment: Cleavage of recombinant full length APE1, Western blot
T2 construct: the full length APE1 protein was successfully expressed and purified; made in house; host or cells: E. coli BL21/DE3
Experimental: Total purified protein concentration was determined by the ratio of A280/A260. 250 ng of APE1 treated with lucanthone or hycanthone (0.05–100 µM) for 2 h at 37°C in final volume of 30 µl were mixed with an equal volume of gel loading buffer (0.001% bromophenol blue, 4% SDS, 10% 2-ME, 20% glycerol, and 125 mM Tris pH 6.8) and denatured at 95°C for 5 min. Total protein concentration in cell extracts was determined using the Bradford assay (BioRad, Hercules, CA) and 25 µg of total protein from soluble or insoluble cell fractions were mixed with an equal volume of gel loading buffer (0.001% bromophenol blue, 4% SDS, 10% 2-ME, 20% glycerol, and 125 mM Tris pH 6.8) and denatured at 95°C for 5 min. This mixture was separated by SDS-PAGE (4% stacking, 7.5% resolving gel) for 2–3 h at 40 mA on a BioRad MiniPROTEAN II Electrophoresis Cell. To detect proteins, proteins were transferred onto a trans-Blot nitrocellulose membrane (0.45 µm; BioRad) overnight at 4°C at 15 mA in standard Tris-Glycine buffer containing 20% ethanol. […] Chemi-luminescence was developed using an ECL kit according to the manufacturer's instructions and detected by exposing the blot to HyperfilmECL for 30 s–3 min. […]

T1 sequence (P27695 whole entry): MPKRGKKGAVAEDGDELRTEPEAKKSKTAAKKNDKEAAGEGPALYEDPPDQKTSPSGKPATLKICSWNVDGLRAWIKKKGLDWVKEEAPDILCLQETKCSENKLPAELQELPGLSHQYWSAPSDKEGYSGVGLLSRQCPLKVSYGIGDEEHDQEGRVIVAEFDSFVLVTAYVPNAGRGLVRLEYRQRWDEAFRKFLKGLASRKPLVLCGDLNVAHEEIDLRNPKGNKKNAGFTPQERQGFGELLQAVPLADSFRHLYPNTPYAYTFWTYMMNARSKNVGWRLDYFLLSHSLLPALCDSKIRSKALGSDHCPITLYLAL
T2 sequence (P27695 whole entry): as above

| SMILES | IC50 (APE1 [1]; read-out: IC50 for inhibition of APE1 incision of depurinated plasmid DNA) [µM] | APE1 protein fragments by MALDI-TOF (APE1 [2]) | Full length 35.5 kDa APE1 peak by MALDI-TOF (APE1 [2]) | Inhibition of DNA binding capacity of APE1 (APE1 [3]) | IC50 (APE1 [1]) [µM] | Kinetics (mode) of inhibition, Lineweaver-Burke plot (APE1 [1]) | Inhibition of endonuclease activity of wild type APE1 (APE1 [1]; 100 µM lucanthone, 2 h, 37°C) | AP endonuclease activity of recombinant APE1 (APE1 [1]; 10-50 µM, 37°C, 2 h) | Time at which APE1 degradation is seen by MALDI (APE1 [2]) [h] | Lucanthone-induced cleavage of APE1 in presence of radical quenchers ([4]; 10 mM TRIS, 100 µM ascorbic acid or N-acetyl cysteine (purified APE1), 1% DMSO (cell extracts)) | Cleavage of recombinant APE1 ([4]; 10-50 µM, 37°C, 2 h) |
| --- | --- | --- | --- | --- | --- | --- | --- | --- | --- | --- | --- |
| CCN(CC)CCNc1ccc(CO)c2sc3ccccc3c(=O)c12 [hycanthone] | 0.08 | cleavage of APE1 as evidenced mainly by 10, 11 and 17 kDa peaks | almost completely degraded | not at all |  |  |  |  |  |  |  |
| CCN(CC)CCNc1ccc(C)c2sc3ccccc3c(=O)c12 [lucanthone, 1-[2-diethylaminoethylamino]-4-methylthioxanthen-9-one] |  | steady degradation of APE1 into smaller fragments | almost completely degraded | marginally inhibited | 5 | non-competitive inhibitor | corresponding inhibition of the endonuclease activity | corresponding decrease in AP endonuclease activity | ≤ 2 | significantly inhibited | increase in the formation of the 25 kDa fragment |
